In PMC7932537, “Quantitative profiling of protease specificity” (PLoS Computational Biology, 2021):

Columns and labels:
[1] = target: MMP-9 (Homo sapiens, UniProt P14780); assay: K(obs) of individual phage substrates (set of 1369); format: biochemical; details: MMP9
[2] = target: T1, MMP-2 (Homo sapiens, UniProt P08253); assay: as above; format: biochemical; details: MMP2
T1 sequence (P08253 110-660): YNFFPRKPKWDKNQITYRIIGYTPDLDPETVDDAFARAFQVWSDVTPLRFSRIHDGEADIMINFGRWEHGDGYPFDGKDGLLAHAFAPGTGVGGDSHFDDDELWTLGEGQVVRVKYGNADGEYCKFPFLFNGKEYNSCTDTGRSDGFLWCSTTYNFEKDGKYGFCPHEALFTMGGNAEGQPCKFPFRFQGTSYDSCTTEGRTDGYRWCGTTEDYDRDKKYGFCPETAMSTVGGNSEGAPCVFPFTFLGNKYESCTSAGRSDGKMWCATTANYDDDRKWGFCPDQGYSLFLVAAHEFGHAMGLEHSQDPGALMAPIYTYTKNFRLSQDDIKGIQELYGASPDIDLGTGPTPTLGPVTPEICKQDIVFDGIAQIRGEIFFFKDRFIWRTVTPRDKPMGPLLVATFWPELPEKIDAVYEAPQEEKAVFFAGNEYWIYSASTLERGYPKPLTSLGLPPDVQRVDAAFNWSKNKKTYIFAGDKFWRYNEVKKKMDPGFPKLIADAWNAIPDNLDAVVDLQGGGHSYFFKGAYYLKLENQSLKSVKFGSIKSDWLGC

[3] = test system: MMP-2; assay: Substrate phage display with NGS: relative probability (RP) of P3-P1' tetramer clusters; format: biochemical, human; details: MMP2;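 further: ratio of tetramer probability after protease selection to that in naive phage library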
[4] = individual phage substrate of the set of 1369 peptides, dash in the sequence marks the cleavage position
[5] = individual phage substrate of the set of 1369 peptides, cleavage position marked by '-'
[6] = RP of the P3-P1' tetramer contained in the substrate
[7] = individual phage substrates, set of 1369 peptides, hyphen in sequence marks cleavage position
[8] = individual phage substrates, set of 1369 peptides, cleavage position marked by hyphen in sequence
[9] = RP of the P3-P1' tetramer contained in the substrate (substrate phage display with NGS)

MMP-9, sequence (P14780 94-707): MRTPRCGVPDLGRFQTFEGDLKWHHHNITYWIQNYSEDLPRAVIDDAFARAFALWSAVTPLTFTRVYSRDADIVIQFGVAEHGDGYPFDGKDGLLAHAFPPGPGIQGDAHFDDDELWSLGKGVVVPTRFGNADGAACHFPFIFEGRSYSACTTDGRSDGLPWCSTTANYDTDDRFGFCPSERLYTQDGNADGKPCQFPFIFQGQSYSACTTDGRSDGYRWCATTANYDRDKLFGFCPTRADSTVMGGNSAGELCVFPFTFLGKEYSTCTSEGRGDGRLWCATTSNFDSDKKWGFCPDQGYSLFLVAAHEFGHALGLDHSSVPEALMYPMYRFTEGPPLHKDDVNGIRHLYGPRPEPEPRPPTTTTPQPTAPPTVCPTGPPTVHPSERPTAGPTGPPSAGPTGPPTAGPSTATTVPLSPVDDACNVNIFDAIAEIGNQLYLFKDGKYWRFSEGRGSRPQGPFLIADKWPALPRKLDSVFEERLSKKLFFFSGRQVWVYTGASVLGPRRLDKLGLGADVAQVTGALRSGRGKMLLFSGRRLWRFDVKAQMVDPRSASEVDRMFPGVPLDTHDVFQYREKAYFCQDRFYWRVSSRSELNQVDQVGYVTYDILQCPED

| Substance | Kobs [1, 4] [M⁻¹ s⁻¹] | Kobs [2, 5] [M⁻¹ s⁻¹] | relative probability (RP) [3, 6] | Kobs [1, 7] [M⁻¹ s⁻¹] | Kobs [2, 8] [M⁻¹ s⁻¹] | relative probability (RP) [3, 9] |
| --- | --- | --- | --- | --- | --- | --- |
| MKWAA-YTASG | 585.336 | 12792.1 | 15.6012 | – | – | – |
| MNWES-LTASG | – | – | – | 0 | 517.582 | 0.6249 |
| MSLGN-LTASG | – | – | – | 292.668 | 12792.1 | 33.3542 |
| MSLGY-LTASG | 0 | 12792.1 | 24.8925 | – | – | – |
| MSPRW-LTASG | 12792.1 | 12792.1 | 34.1809 | – | – | – |
| MSWSA-LTASG | 113.394 | 12792.1 | 25.8217 | – | – | – |
| MVPKW-LTASG | 10866.7 | 7815.03 | 29.287 | – | – | – |
| NHVWP-LTASG | 726.013 | 1154.21 | 5.294 | – | – | – |
| NKVYA-WTASG | – | – | – | 1711.63 | 799.117 | 0.6193 |
| NMWAH-LTASG | – | – | – | 323.705 | 3079.62 | 7.453 |
| NRFSN-LTASG | – | – | – | 0 | 8941.32 | 24 |
| NRLSH-WTASG | – | – | – | 912.511 | 12792.1 | 23.1226 |
| NRPAS-WTASG | – | – | – | 3253.29 | 12792.1 | 32.4643 |
| NRVEM-LTASG | 0 | 261.974 | 2.124 | – | – | – |
| NSPLS-YTASG | 12792.1 | 8321.48 | 31.2477 | – | – | – |
| NTPNW-LTASG | – | – | – | 6131.32 | 10866.7 | 26.5667 |
| NTSAW-LTASG | – | – | – | 386.839 | 6688.74 | 18.9346 |
| NVPVW-MTASG | 5461.43 | 5461.43 | 25.8126 | – | – | – |
| PAYFP-LTASG | 0 | 0 | 0.1432 | – | – | – |
| PCHLA-LTASG | 619.843 | 1327.88 | 11.3603 | – | – | – |
| PGPES-LTASG | – | – | – | 12792.1 | 10866.7 | 26.0767 |
| PHTAS-LTASG | 0 | 12792.1 | 17.8872 | – | – | – |

| Substance | Kobs [1, 4] [M⁻¹ s⁻¹] | Kobs [2, 5] [M⁻¹ s⁻¹] | relative probability (RP) [3, 6] | Kobs [1, 7] [M⁻¹ s⁻¹] | Kobs [2, 8] [M⁻¹ s⁻¹] | relative probability (RP) [3, 9] |
| --- | --- | --- | --- | --- | --- | --- |
| PIALH-WTASG | – | – | – | 12792.1 | 12792.1 | 5.12 |
| PKFSH-MTASG | – | – | – | 0 | 1030.73 | 11.0227 |
| PKGYA-LTASG | 3850.82 | 2615.58 | 0.5867 | – | – | – |
| PKMSH-LTASG | 0 | 2409.72 | 24.6165 | – | – | – |
| PKWHG-LTASG | 619.843 | 355.093 | 0.5588 | – | – | – |
| PMVRW-LTASG | – | – | – | 12792.1 | 12792.1 | 25.891 |
| PQVWY-LTASG | – | – | – | 5889.62 | 4205.91 | 3.667 |
| PRLTH-LTASG | – | – | – | 27.918 | 1610.61 | 4.299 |
| PRVEA-LTASG | 231.616 | 4205.91 | 10.756 | – | – | – |
| PRVHH-LTASG | 2615.58 | 6396.07 | 14.1228 | – | – | – |
| PRVML-LTASG | – | – | – | 1112.44 | 142.481 | 0.4692 |
| PRVWL-LTASG | – | – | – | 2687.73 | 3165.09 | 0.5351 |
| PSWRA-LTASG | 4470.66 | 10866.7 | 22.4074 | – | – | – |
| PTFAH-LTASG | 585.336 | 9740.44 | 19.6504 | – | – | – |
| PVFQS-LTASG | – | – | – | 142.481 | 4922.1 | 13.5551 |
| PYPVP-FTASG | 12792.1 | 12792.1 | 31.1155 | – | – | – |
| QAPMG-LTASG | 9740.44 | 3438.54 | 34.7865 | – | – | – |
| QEPRN-ITASG | 12792.1 | 12792.1 | 31.9621 | – | – | – |
| QGPWH-ITASG | 12792.1 | 4205.91 | 10.946 | – | – | – |
| QHWGG-LTASG | – | – | – | 386.839 | 12792.1 | 21.3794 |
| QKVLN-MTASG | – | – | – | 5269.78 | 2476.66 | 19.025 |
| QPLSW-VTASG | 4922.1 | 12792.1 | 11.7463 | – | – | – |
